Values of other authors in patent US7108866B1, “Chronotherapeutic diltiazem formulations and the administration thereof” (Biovall Laboratories International SRL, priority 1999, dated 2006).

Conditions: at steady state

COc1ccc([C@@H]2Sc3ccccc3N(CCN(C)C)C(=O)[C@@H]2OC(C)=O)cc1 [Diltiazem]
Tmax: 2 to 6 h
